As a reminder, the inhibition is the change of the read-out against control, counted positive when it falls.

Consider 3 compounds from US4148795A, “Dithiocarbamate ester bactericides and fungicides” (American Cyanamid Company, priority 1976, dated 1979).

Structures are written as SMILES. Values joined by “and” are separate entries in the source; they are usually repeats but may differ in a detail not shown here. Equal entries are not always repeated. Where two headings read alike, the source gives them in different places.

In one assay the test system is Verticillium albo-atrum. The experiment in a line: Agar dilution plate. As to conditions: Va; 100 ppm, 72 hours at 23° C. The assay is classed as cell-based. The procedure, abridged:
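Compounds incorporated at about 100 ppm into Sabouraud's dextrose agar, then inoculated with the fungus and incubated about 72 hours at 23° C. Growth scored as 0 (no control) or 5 (100% effectiveness); test repeated twice.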
(In agar dilution the substance is mixed into plates at graded concentrations.)

The subject of assay [1] is Colletotrichum lagenarium. As to conditions: in vivo.
For a further assay, the system named is Xanthomonas vesicatoria. The assay is classed as cell-based. As to conditions: 100 ppm; subcultures 72 hours at 37° C. Note: key: 0: No Effect; 9: Kill of Bacteria; 5: Stasis, but not Kill of all Bacteria.
For assay [2], the system named is Aspergillus niger. In words: Spore germination inhibition. As to conditions: 24 hours. It is filed as cell-based. The procedure, abridged: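 Test compound is suspended in water at 100, 10 or 1 ppm. and dispensed into one dram "opticlear" vials. Each vial receives one drop of a spore suspension taken from seven-day Aspergillus niger cultures grown on potato-dextrose agar. Capped vials rotate on a tumbler for 24 hours, then are inspected for inhibition of mycelial growth.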

The test system of assay [3] is Monilinia fructicola. In words: Spore germination inhibition. The assay is classed as cell-based. Conditions: for inhibition at 1 ppm / inhibition at 10 ppm: 24 hours; for inhibition at 100 ppm: 24 h, read-out: % Inhibition of Spore Germination. The procedure, abridged:
(§1)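 Test compounds were suspended in water at 100, 10 or 1 ppm and inoculated with spore suspensions from 7-day (A. niger) or 14-day potato-dextrose agar cultures. Vials were tumbled for 24 hours and then examined for inhibition of mycelial growth.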

The test system of assay [4] is Stemphylium sarcinaeforme. The experiment in a line: Spore germination inhibition. The assay is classed as cell-based. As to conditions: Stemphylium sarciniforme; for inhibition at 100 ppm: 24 h, read-out: % Inhibition of Spore Germination. The method in brief:
as §1

The subject of assay [5] is Stemphylium sarcinaeforme. In words: Agar dilution plate. As to conditions: Ss; 100 ppm, 72 hours at 23° C. The assay is classed as cell-based. The procedure, abridged: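 Compound incorporated into Sabouraud's dextrose agar at about 100 ppm, inoculated with Stemphylium sarcinaeforme and incubated about 72 hours at 23 °C. Growth scored 0 (no control) or 5 (100% effectiveness), test run in repeat.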

The test system of the next assay is Venturia inaequalis. As to conditions: in vivo. Note: key: 5: clean, no disease; 4: trace of disease; 3: slight disease; 2: moderate disease; 1: severe disease; 0: like controls.
Another assay concerns Staphylococcus aureus. The assay is classed as cell-based. Conditions: 100 ppm; subcultures 72 hours at 37° C. Note: key: 0: No Effect; 9: Kill of Bacteria; 5: Stasis, but not Kill of all Bacteria.
A further assay relates to Pseudomonas solaracaerum. It is filed as cell-based. As to conditions: 100 ppm, 72 hours at 23° C.
A further assay relates to Pythium de Baryanum. In words: Agar dilution plate. The assay is classed as cell-based. Conditions: Pd; 100 ppm, 72 hours at 23° C. The method in brief: (§2)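 Fungal inoculum on Sabouraud's dextrose agar dosed at approx. 100 ppm compound, 23° C for ~72 h. Growth rated 0 = no control, 5 = 100% effectiveness.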
For the next assay, the system named is Fusarium lycopersici. The experiment in a line: Agar dilution plate. Conditions: Fl; 100 ppm, 72 hours at 23° C. It is filed as cell-based. The procedure, abridged:
as §2

Assay [6] relates to Aspergillus niger. In words: Agar dilution plate. It is filed as cell-based. As to conditions: An; 100 ppm, 72 hours at 23° C. The procedure, abridged: as §2
The next assay has as its system Rhizoctonia solani. The experiment in a line: Agar dilution plate. It is filed as cell-based. As to conditions: Rs; 100 ppm, 72 hours at 23° C. The procedure, abridged: as §2
The subject of assay [7] is Monilinia fructicola. The experiment in a line: Agar dilution plate. As to conditions: Mf; 100 ppm, 72 hours at 23° C. The assay is classed as cell-based. The procedure, abridged:
as §2

Another assay relates to Aerobacter aerogenes. The assay is classed as cell-based. Conditions: 100 ppm; subcultures 72 hours at 37° C.
The next assay has as its system Piricularia oryzae. It is filed as in vivo. Also noted: scale not given here. As to conditions: Rice Blast, five days.
Assay [8] has as its system Collectotrichum lagenarium. In words: Agar dilution plate. Conditions: Cl; 100 ppm, 72 hours at 23° C. It is filed as cell-based. The procedure, abridged: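 Compounds were incorporated at about 100 ppm in Sabouraud's dextrose agar, inoculated, and incubated about 72 h at 23 °C. Growth was scored 0 (no control) or 5 (100% effectiveness), and the test was repeated twice.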

A further assay deals with Phytophthora infestans. The assay is classed as in vivo. Also noted: scale not given here. Conditions: Tomato Late Blight, five days.
Throughout, for Antibacterial Activity rating: key: 0: No Effect; 9: Kill of Bacteria; 5: Stasis, but not Kill of all Bacteria.

Take `CN(C)CC(C)(CSC(=S)N(C)C)[N+](=O)[O-]` (stereo not drawn) [Example 7, 3-Dimethylamino-2-methyl-2-nitropropyl Dimethyldithiocarbamate]: the “Agar Dilution Plate rating” value in the assay on Verticillium albo-atrum is given as 5 (100% effectiveness of the test compound against the specified organism); in assay [5], 5 (100% effectiveness of the test compound against the specified organism); in the assay with Pseudomonas solaracaerum, 0; in the assay on Pythium de Baryanum it was 0; in the assay on Fusarium lycopersici, 0; with Aspergillus niger [6], 0. The “Agar Dilution Plate rating” value (in the assay on Rhizoctonia solani; with Monilinia fructicola [7]; in [8]) was 5 (100% effectiveness of the test compound against the specified organism) in each case. Also, the disease control index is 2 in [1]; 5 and 0 in the assay with Venturia inaequalis; 2 in the assay on Piricularia oryzae (150 ppm); 2 in the assay on Piricularia oryzae (300 ppm); 4 in the assay on Piricularia oryzae (600 ppm); 5 with Piricularia oryzae (1200 ppm). For the same compound, the results for the “Antibacterial Activity rating” value in the assay on Xanthomonas vesicatoria, with Staphylococcus aureus and in the assay with Aerobacter aerogenes were 5, 9 and 9, respectively. For the same compound, the inhibition at 1 ppm with Aspergillus niger [2] and in the assay with Monilinia fructicola [3] was 0% throughout. Besides, the inhibition at 10 ppm in the assay with Aspergillus niger [2] and in the assay with Monilinia fructicola [3] was 100% throughout. Besides, the figures for the inhibition at 100 ppm (in the assay on Aspergillus niger [2]; with Monilinia fructicola [3]; in assay [4]) were 100%, 100% and 0%, respectively.

With `CC(C(SC(=S)N(C)C)c1ccccc1)[N+](=O)[O-]` (stereo not drawn) [Example 18, α-(1-Nitroethyl)benzyl Dimethyldithiocarbamate], the “Agar Dilution Plate rating” value with Verticillium albo-atrum was 5 (100% effectiveness of the test compound against the specified organism); in assay [5], 5 (100% effectiveness of the test compound against the specified organism); with Pseudomonas solaracaerum, 0; with Pythium de Baryanum, 5 (100% effectiveness of the test compound against the specified organism); in the assay with Fusarium lycopersici it was 5 (100% effectiveness of the test compound against the specified organism); with Aspergillus niger [6], 0. In addition, the “Agar Dilution Plate rating” value (in the assay on Rhizoctonia solani; in the assay on Monilinia fructicola [7]; in assay [8]) was 5 (100% effectiveness of the test compound against the specified organism) each time. Moreover, the disease control index (in [1]; with Venturia inaequalis; in the assay with Phytophthora infestans (at 100 ppm); in the assay on Phytophthora infestans (at 500 ppm); in the assay with Piricularia oryzae (at 100 ppm); in the assay on Piricularia oryzae (at 500 ppm)) was 5 in each case. In addition, the “Antibacterial Activity rating” value with Xanthomonas vesicatoria stood at 0; in the assay on Staphylococcus aureus, 5; with Aerobacter aerogenes it was 0.

As for `CN(C)C(=S)SC(C[N+](=O)[O-])c1ccc2c(c1)OCO2` (stereo not drawn) [Example 28, 3,4-(Methylenedioxy)-α-(nitromethyl)benzyl Dimethyldithiocarbamate], the “Agar Dilution Plate rating” value in the assay with Verticillium albo-atrum is 5 (100% effectiveness of the test compound against the specified organism); in assay [5], 5 (100% effectiveness of the test compound against the specified organism); in the assay on Pseudomonas solaracaerum, 0; with Pythium de Baryanum it was 5 (100% effectiveness of the test compound against the specified organism); in the assay on Fusarium lycopersici it was 0; in the assay on Aspergillus niger [6], 0. In addition, the “Agar Dilution Plate rating” value with Rhizoctonia solani is 0; in the assay with Monilinia fructicola [7], 5 (100% effectiveness of the test compound against the specified organism); in [8], 5 (100% effectiveness of the test compound against the specified organism). Moreover, the disease control index was 5 in assay [1]; 5 and 0 in the assay with Venturia inaequalis; 5 in the assay on Phytophthora infestans (at 100 ppm); 5 in the assay with Phytophthora infestans (at 500 ppm); 0 in the assay on Piricularia oryzae (150 ppm); 0 in the assay with Piricularia oryzae (300 ppm). Also, the disease control index in the assay with Piricularia oryzae (600 ppm) and with Piricularia oryzae (1200 ppm) was 5 in each case. Also, the results for the “Antibacterial Activity rating” value in the assay with Xanthomonas vesicatoria, with Staphylococcus aureus and in the assay on Aerobacter aerogenes were 5, 5 and 9, respectively. Also, the inhibition at 1 ppm was found to be 100% with Aspergillus niger [2]; 100% with Monilinia fructicola [3]; 0% in assay [4] (1 ppm, 24 hours). The inhibition at 10 ppm with Aspergillus niger [2] was 100%; in the assay with Monilinia fructicola [3] it was 100%; in assay [4] (10 ppm, 24 hours), 0%. Also, the inhibition at 100 ppm (with Aspergillus niger [2]; in the assay with Monilinia fructicola [3]; in assay [4]) was 100% throughout.
